According to patent US8765730B2 (Hoffmann-La Roche Inc, priority 2010, dated 2014):

Each compound was assayed against T1, human GPBAR1 receptor (Homo sapiens, UniProt Q8TDU6) (assay: functional cAMP assay in CHO-dhfr(minus) cells expressing human GPBAR1 receptors). Details: functional cAMP assay, 30 min at 30° C., read-out: human EC50.
T1 construct: expressed in transfected cells
T1 sequence (Q8TDU6 1-330): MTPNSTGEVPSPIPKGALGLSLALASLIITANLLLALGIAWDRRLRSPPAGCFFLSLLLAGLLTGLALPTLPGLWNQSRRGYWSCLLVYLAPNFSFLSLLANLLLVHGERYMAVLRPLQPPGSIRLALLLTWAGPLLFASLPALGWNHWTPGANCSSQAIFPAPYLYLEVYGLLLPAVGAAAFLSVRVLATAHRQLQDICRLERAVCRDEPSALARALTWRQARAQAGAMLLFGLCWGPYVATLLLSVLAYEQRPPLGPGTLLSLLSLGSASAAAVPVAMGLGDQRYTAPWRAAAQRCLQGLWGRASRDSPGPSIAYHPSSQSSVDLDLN
Assay type: cell-based
Method in brief: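 Agonist cAMP read-out: stable GPBAR1 CHO-dhfr− clone, 30 min compound exposure at 30° C following 30 min IBMX (1 mM) preincubation in Krebs Ringer bicarbonate. Time-resolved energy-transfer detection gives EC50; parental CHO cells serve as counter-screen.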
Cc1ccccc1[C@H](C/C(=N\O)c1ccnc(CO)c1)c1ccc(N2CCC(C(=O)O)CC2)cc1 [Example 374, (R,E)-1-(4-(3-(Hydroxyimino)-3-(2-(hydroxymethyl)pyridin-4-yl)-1-o-tolylpropyl)phenyl)-piperidine-4-carboxylic acid] showed an EC50 of 31 nM.

Same assay, conditions: human EC50, functional cAMP assay, 30 min at 30° C.
Work on Cc1cc(Cl)ccc1C(C/C(=N\O)c1ccc(=O)n(C)c1)c1ccc(C(=O)O)cc1 (centres unmarked) [Example 361, 4-[1-(4-Chloro-2-methyl-phenyl)-3-[(E)-hydroxyimino]-3-(1-methyl-6-oxo-1,6-dihydro-pyridin-3-yl)-propyl]-benzoic acid] yielded an EC50 of 2300 nM. Cc1cc(Cl)ccc1[C@H](C/C(Cc1ccccn1)=N\O)c1ccc(Br)cc1 [Example 362, (E,R)-4-(4-bromo-phenyl)-4-(4-chloro-2-methyl-phenyl)-1-pyridin-2-yl-butan-2-one oxime] gave an EC50 of 2000 nM. Work on Cc1cc(/C(C[C@H](c2ccc(O)cc2)c2ccccc2C)=N/O)ccn1 [Example 363, (R)-3-(4-Hydroxy-phenyl)-1-(2-methyl-pyridin-4-yl)-3-o-tolyl-propan-1-one oxime] yielded an EC50 of 28 nM. For CCOc1ccc([C@@H](C/C(=N\O)c2ccnc(C)c2)c2ccccc2C)cc1 [Example 364, (R)-3-(4-Ethoxy-phenyl)-1-(2-methyl-pyridin-4-yl)-3-o-tolyl-propan-1-one oxime], the EC50 was 4 nM. Work on Cc1cc(/C(C[C@@H](c2ccc(O)cc2)c2ccc(Cl)cc2C)=N/O)ccn1 [Example 365, (S)-3-(4-Chloro-2-methyl-phenyl)-3-(4-hydroxy-phenyl)-1-(2-methyl-pyridin-4-yl)-propan-1-one oxime] yielded an EC50 of 233 nM. For CCOc1ccc([C@H](C/C(=N\O)c2ccnc(C)c2)c2ccc(Cl)cc2C)cc1 [Example 366, (S)-3-(4-Chloro-2-methyl-phenyl)-3-(4-ethoxy-phenyl)-1-(2-methyl-pyridin-4-yl)-propan-1-one oxime], the EC50 was 171 nM. Work on Cc1cc(/C(C[C@H](c2ccc(N3CCC(C(N)=O)CC3)cc2)c2ccccc2C)=N/O)ccn1 [Example 367, (R,E)-1-(4-(3-(Hydroxyimino)-3-(2-methylpyridin-4-yl)-1-o-tolylpropyl)phenyl)piperidine-4-carboxamide] yielded an EC50 of 1 nM. Work on Cc1cc(/C(C[C@H](c2ccccc2)c2ccccc2C)=N/O)ccn1 [Example 368, (R,E)-1-(2-Methylpyridin-4-yl)-3-phenyl-3-o-tolylpropan-1-one oxime] yielded an EC50 of 18 nM. With Cc1cc(/C(C[C@H](c2ccc(N3CCC(C(=O)NCC(=O)O)CC3)cc2)c2ccccc2C)=N/O)ccn1 [Example 369, (R,E)-2-(1-(4-(3-(Hydroxyimino)-3-(2-methylpyridin-4-yl)-1-o-tolylpropyl)phenyl)-piperidine-4-carboxamido)acetic acid] the EC50 was 2 nM. Cc1cc(/C(C[C@H](c2ccc(N3CCC(C(=O)NCCS(=O)(=O)O)CC3)cc2)c2ccccc2C)=N/O)ccn1 [Example 370, (R,E)-2-(1-(4-(3-(hydroxyimino)-3-(2-methylpyridin-4-yl)-1-o-tolylpropyl)phenyl)-piperidine-4-carboxamido)ethanesulfonic acid] showed an EC50 of 1 nM. In the case of Cc1cc(/C(C[C@H](c2ccc(N3CC4(CSC4)C3)cc2)c2ccccc2C)=N/O)ccn1 [Example 371, (3R,E)-3-(4-(2-thia-6-azaspiro[3.3]heptan-6-yl)phenyl)-1-(2-methylpyridin-4-yl)-3-o-tolylpropan-1-one oxime], the EC50 is reported as 24 nM. Work on Cc1cc(/C(C[C@H](c2ccc(C3=CCN(C(=O)OC(C)(C)C)CC3)cc2)c2ccccc2C)=N/O)ccn1 [Example 372, (R)-tert-Butyl 4-(4-(3-(hydroxyimino)-3-(2-methylpyridin-4-yl)-1-o-tolylpropyl)phenyl)-5,6-dihydropyridine-1(2H)-carboxylate] yielded an EC50 of 134 nM. Cc1cc(/C(C[C@H](c2ccc(C3=CCNCC3)cc2)c2ccccc2C)=N/O)ccn1 [Example 375, (R,E)-1-(2-Methylpyridin-4-yl)-3-(4-(1,2,3,6-tetrahydropyridin-4-yl)phenyl)-3-o-tolylpropan-1-one oxime] showed an EC50 of 75 nM. Work on Cc1cc(/C(C[C@H](c2ccc(C3=CCN(S(C)(=O)=O)CC3)cc2)c2ccccc2C)=N/O)ccn1 [Example 376, (R,E)-1-(2-Methylpyridin-4-yl)-3-(4-(1-(methylsulfonyl)-1,2,3,6-tetrahydropyridin-4-yl)phenyl)-3-o-tolylpropan-1-one oxime] yielded an EC50 of 14 nM. For Cc1cc(/C(C[C@H](c2ccc(C3=CC(=O)NCC3)cc2)c2ccccc2C)=N/O)ccn1 [Example 377, (R,E)-4-(4-(3-(Hydroxyimino)-3-(2-methylpyridin-4-yl)-1-o-tolylpropyl)phenyl)-5,6-dihydropyridin-2(1H)-one], the EC50 was 12 nM. For Cc1cc(/C(C[C@H](c2ccc(C3CCNCC3)cc2)c2ccccc2C)=N/O)ccn1 [Example 378, (R,E)-1-(2-Methylpyridin-4-yl)-3-(4-(piperidin-4-yl)phenyl)-3-o-tolylpropan-1-one oxime], the EC50 was 145 nM. Cc1cc(/C(C[C@H](c2ccc(C3CCN(S(C)(=O)=O)CC3)cc2)c2ccccc2C)=N/O)ccn1 [Example 379, (R,E)-1-(2-methylpyridin-4-yl)-3-(4-(1-(methylsulfonyl)piperidin-4-yl)phenyl)-3-o-tolylpropan-1-one oxime] gave an EC50 of 14 nM. In the case of Cc1cc(/C(C[C@@H](c2ccc(N3CCOCC3)cc2)c2ccccc2C)=N/O)ccn1 [Example 381, (S,E)-1-(2-Methylpyridin-4-yl)-3-(4-morpholinophenyl)-3-o-tolylpropan-1-one oxime], the EC50 is reported as 50 nM. Work on Cc1cc(/C(C[C@H](c2ccc(CC(=O)O)cc2)c2ccc(Cl)cc2C)=N/O)ccn1 [Example 382, {4-[(R)-1-(4-Chloro-2-methyl-phenyl)-3-[(E)-hydroxyimino]-3-(2-methyl-pyridin-4-yl)-propyl]-phenyl}-acetic acid] yielded an EC50 of 41 nM. For Cc1cc(Cl)ccc1[C@H](C/C(=N\O)c1ccnc(CO)c1)c1ccc(Br)cc1 [Example 383, (R,E)-3-(4-Bromophenyl)-3-(4-chloro-2-methylphenyl)-1-(2-(hydroxymethyl)pyridin-4-yl)propan-1-one oxime], the EC50 was 327 nM. Cc1cc(Cl)ccc1[C@H](C/C(=N\O)c1cc[n+]([O-])c(C)c1)c1ccc(Br)cc1 [Example 384, (R,E)-4-(3-(4-Bromophenyl)-3-(4-chloro-2-methylphenyl)-1-(hydroxyimino)propyl)-2-methylpyridine 1-oxide] gave an EC50 of 168 nM. Cc1cc(/C(=N/O)C(C)[C@H](c2ccc(Br)cc2)c2ccc(Cl)cc2C)ccn1 (stereo partly drawn) [Example 385, (3R,E)-3-(4-bromophenyl)-3-(4-chloro-2-methylphenyl)-2-methyl-1-(2-methylpyridin-4-yl)propan-1-one oxime] gave an EC50 of 698 nM. Cc1cc(/C(C[C@H](c2ccc(Br)cc2)c2ccc(Cl)cc2C)=N/O)ccn1 [Example 386, (R,E)-3-(4-bromophenyl)-3-(4-chloro-2-methylphenyl)-1-(2-methylpyridin-4-yl)propan-1-one oxime] gave an EC50 of 169 nM. Cc1cc(/C(C[C@H](c2ccc(C3CCN(C(=O)OC(C)(C)C)CC3)cc2)c2ccc(Cl)cc2C)=N/O)ccn1 [Example 387, (R,E)-tert-Butyl 4-(4-(1-(4-chloro-2-methylphenyl)-3-(hydroxyimino)-3-(2-methylpyridin-4-yl)propyl)phenyl)piperidine-1-carboxylate] showed an EC50 of 371 nM. Cc1cc(/C(C[C@H](c2ccc(C3CCNCC3)cc2)c2ccc(Cl)cc2C)=N/O)ccn1 [Example 388, (R,E)-3-(4-chloro-2-methylphenyl)-1-(2-methylpyridin-4-yl)-3-(4-(piperidin-4-yl)phenyl)propan-1-one oxime] showed an EC50 of 172 nM. Cc1cc(/C(C[C@H](c2ccc(C3CCN(S(C)(=O)=O)CC3)cc2)c2ccc(Cl)cc2C)=N/O)ccn1 [Example 389, (R,E)-3-(4-Chloro-2-methylphenyl)-1-(2-methylpyridin-4-yl)-3-(4-(1-(methylsulfonyl)-piperidin-4-yl)phenyl)propan-1-one oxime] was tested, and the EC50 was 33 nM. Compound Cc1cc(/C(C[C@@H](c2ccccc2)c2ccc(Cl)cc2C)=N/O)ccn1 [Example 390, (S)-3-(4-Chloro-2-methyl-phenyl)-1-(2-methyl-pyridin-4-yl)-3-phenyl-propan-1-one oxime] has an EC50 of 53 nM. Cc1cc(/C(CC(c2cccc(S(C)(=O)=O)c2)c2ccccc2C)=N/O)ccn1 (centres unmarked) [Example 391, (E)-1-(2-methylpyridin-4-yl)-3-(3-(methylsulfonyl)phenyl)-3-o-tolylpropan-1-one oxime] showed an EC50 of 122 nM. In the case of Cc1cc(F)ccc1C(C/C(=N\O)c1ccc(=O)n(C)c1)c1ccc(-c2ccc(NC(=O)CCC(=O)O)cc2)cc1 (centres unmarked) [Example 392, N-{4′-[1-(4-Fluoro-2-methyl-phenyl)-3-[(E)-hydroxyimino]-3-(1-methyl-6-oxo-1,6-dihydro-pyridin-3-yl)-propyl]-biphenyl-4-yl}-succinamic acid], the EC50 is reported as 54 nM. COC(=O)CC(=O)Nc1ccc(-c2ccc(C(C/C(=N\O)c3ccc(=O)n(C)c3)c3ccc(F)cc3C)cc2)cc1 (centres unmarked) [Example 399, N-{4′-[1-(4-Fluoro-2-methyl-phenyl)-3-[(E)-hydroxyimino]-3-(1-methyl-6-oxo-1,6-dihydro-pyridin-3-yl)-propyl]-biphenyl-4-yl}-malonamic acid methyl ester] showed an EC50 of 165 nM. Cc1cc(F)ccc1C(C/C(=N\O)c1ccc(=O)n(C)c1)c1ccc(-c2ccc(NC(=O)CC(=O)O)cc2)cc1 (centres unmarked) [Example 400, N-{4′-[1-(4-Fluoro-2-methyl-phenyl)-3-[(E)-hydroxyimino]-3-(1-methyl-6-oxo-1,6-dihydro-pyridin-3-yl)-propyl]-biphenyl-4-yl}-malonamic acid] was tested, and the EC50 was 49 nM.
